According to paper PMC12454493, “Insight on novel sulfamoylphenyl pyrazole derivatives as anticancer carbonic anhydrase inhibitors” (Molecular Diversity, 2024):

Assays:
Format in all cases: cell-based
PC-3 = test: NCI-60 one-dose SRB screen (Prostate Cancer); settings: Homo sapiens, single dose 10 µM, 48 h, read-out: Growth inhibition percent (GI %)
Procedure: (§1) The National Cancer Institute (NCI) Developmental Therapeutic Program (www.dtp.nci.nih.gov) selected the 20 novel synthesized compounds 4a-e, 5a-e, 6a-c, 9a-e, 10 and 11 to test for their anticancer activity at a single dose of 10 µM using SRB assay. […] Supplementary Data S3; Table S1 presents the detailed screening results of the most promising compounds. The preliminary screening’s detailed results for the remaining compounds are elucidated in the (Supplementary Data S3; Table S2).
(§2) The guidelines of the Drug Evaluation Branch’s protocol at the NCI in Bethesda served as the basis for the in vitro anticancer screening assays. at one dose 10 µM against a panel of 60 cancer cell lines. The human tumor cell lines used belonged to nine panels: leukemia, melanoma, lung, colon, CNS, ovarian, renal, prostate and breast cancers using the sulforhodamine B (SRB) assay in a 48 h drug exposure protocol.

DU-145 = test: NCI-60 one-dose SRB screen (Prostate Cancer); settings: Homo sapiens, single dose 10 µM, 48 h, read-out: Growth inhibition percent (GI %)
Procedure: as §1, §2

ACHN = test: NCI-60 one-dose SRB screen (Renal Cancer); settings: Homo sapiens, single dose 10 µM, 48 h, read-out: Growth inhibition percent (GI %)
Procedure: as §1, §2

UO-31 = test: NCI-60 one-dose SRB screen (Renal Cancer); settings: Homo sapiens, single dose 10 µM, 48 h, read-out: Growth inhibition percent (GI %)
Procedure: as §1, §2

TK-10 = test: NCI-60 one-dose SRB screen (Renal Cancer); settings: Homo sapiens, single dose 10 µM, 48 h, read-out: Growth inhibition percent (GI %)
Procedure: as §1, §2

A498 = test: NCI-60 one-dose SRB screen (Renal Cancer); settings: Homo sapiens, single dose 10 µM, 48 h, read-out: Growth inhibition percent (GI %)
Procedure: as §1, §2

RXF 393 = test: NCI-60 one-dose SRB screen (Renal Cancer); settings: Homo sapiens, single dose 10 µM, 48 h, read-out: Growth inhibition percent (GI %)
Procedure: as §1, §2

786-0 = test: NCI-60 one-dose SRB screen (Renal Cancer); settings: Homo sapiens, single dose 10 µM, 48 h, read-out: Growth inhibition percent (GI %)
Procedure: as §1, §2

CAKI-1 = test: NCI-60 one-dose SRB screen (Renal Cancer); settings: Homo sapiens, single dose 10 µM, 48 h, read-out: Growth inhibition percent (GI %)
Procedure: as §1, §2

HOP-92 = test: NCI-60 one-dose SRB screen (Non-Small Cell Lung Cancer); settings: Homo sapiens, single dose 10 µM, 48 h, read-out: Growth inhibition percent (GI %)
MDA-MB-231/ATCC = test: NCI-60 one-dose SRB screen (Breast Cancer); settings: Homo sapiens, single dose 10 µM, 48 h, read-out: Growth inhibition percent (GI %)
Procedure: as §1, §2

HS 578T = test: NCI-60 one-dose SRB screen (Breast Cancer); settings: Homo sapiens, single dose 10 µM, 48 h, read-out: Growth inhibition percent (GI %)
Procedure: as §1, §2

MDA-MB-468 = test: NCI-60 one-dose SRB screen (Breast Cancer); settings: Homo sapiens, single dose 10 µM, 48 h, read-out: Growth inhibition percent (GI %)
Procedure: as §1, §2

BT-549 = test: NCI-60 one-dose SRB screen (Breast Cancer); settings: Homo sapiens, single dose 10 µM, 48 h, read-out: Growth inhibition percent (GI %)
Procedure: as §1, §2

MCF-7 = test: NCI-60 one-dose SRB screen (Breast Cancer); settings: Homo sapiens, MCF7, single dose 10 µM, 48 h, read-out: Growth inhibition percent (GI %)
Procedure: as §1, §2

T-47D = test: NCI-60 one-dose SRB screen (Breast Cancer); settings: Homo sapiens, T47D, single dose 10 µM, 48 h, read-out: Growth inhibition percent (GI %)
Procedure: as §1, §2

SN12C = test: NCI-60 one-dose SRB screen (Renal Cancer); settings: Homo sapiens, single dose 10 µM, 48 h, read-out: Growth inhibition percent (GI %)
Procedure: as §1, §2

NC(=S)NNC(=O)c1cn(-c2ccc(S(N)(=O)=O)cc2)nc1-c1ccccc1 [Compound 9a, 2-[3-Phenyl-1-(4-sulfamoylphenyl)-1H-pyrazole-4-carbonyl] hydrazine-1-carbothioamide]
inhibition at 10 µM (PC-3): < 5% | inhibition at 10 µM (DU-145): < 5% | inhibition at 10 µM (ACHN): < 5% | inhibition at 10 µM (UO-31): < 5% | inhibition at 10 µM (TK-10): 12.3% | inhibition at 10 µM (A498): < 5% | inhibition at 10 µM (RXF 393): < 5% | inhibition at 10 µM (786-0): 9.98% | inhibition at 10 µM (CAKI-1): < 5% | inhibition at 10 µM (HOP-92): < 5% | inhibition at 10 µM (MDA-MB-231/ATCC): < 5% | inhibition at 10 µM (HS 578T): < 5% | inhibition at 10 µM (MDA-MB-468): < 5% | inhibition at 10 µM (BT-549): < 5% | inhibition at 10 µM (MCF-7): < 5% | inhibition at 10 µM (T-47D): < 5%

CS(=O)(=O)c1ccc(-c2nn(-c3ccc(S(N)(=O)=O)cc3)cc2C(=O)OCC(=O)Nc2ccc(S(N)(=O)=O)cc2)cc1 [Compound 4e, 2-Oxo-2-[(4-sulfamoylphenyl)amino] ethyl 3-(4-(methylsulfonyl)phenyl)-1-(4-sulfamoylphenyl)-1H-pyrazole-4-carboxylate]
inhibition at 10 µM (PC-3): < 5% | inhibition at 10 µM (DU-145): < 5% | inhibition at 10 µM (ACHN): < 5% | inhibition at 10 µM (UO-31): 8.95% | inhibition at 10 µM (TK-10): < 5% | inhibition at 10 µM (A498): < 5% | inhibition at 10 µM (RXF 393): < 5% | inhibition at 10 µM (786-0): < 5% | inhibition at 10 µM (CAKI-1): 8.93% | inhibition at 10 µM (HOP-92): < 5% | inhibition at 10 µM (MDA-MB-231/ATCC): < 5% | inhibition at 10 µM (HS 578T): < 5% | inhibition at 10 µM (MDA-MB-468): < 5% | inhibition at 10 µM (BT-549): < 5% | inhibition at 10 µM (MCF-7): < 5% | inhibition at 10 µM (T-47D): < 5%

NS(=O)(=O)c1ccc(-n2cc(C(=O)OCC(=O)Nc3nnc(S(N)(=O)=O)s3)c(-c3ccccc3)n2)cc1 [Compound 6a, 2-Oxo-2-[(5-sulfamoyl-1,3,4-thiadiazol-2-yl)amino] ethyl 3-phenyl-1-(4-sulfamoylphenyl)-1H-pyrazole-4-carboxylate]
inhibition at 10 µM (PC-3): < 5% | inhibition at 10 µM (DU-145): < 5% | inhibition at 10 µM (ACHN): 6.63% | inhibition at 10 µM (UO-31): 12.6% | inhibition at 10 µM (TK-10): < 5% | inhibition at 10 µM (A498): < 5% | inhibition at 10 µM (SN12C): < 5% | inhibition at 10 µM (RXF 393): < 5% | inhibition at 10 µM (CAKI-1): 7.52% | inhibition at 10 µM (HOP-92): < 5% | inhibition at 10 µM (MDA-MB-231/ATCC): 9.95% | inhibition at 10 µM (HS 578T): 5.52% | inhibition at 10 µM (MDA-MB-468): < 5% | inhibition at 10 µM (BT-549): < 5% | inhibition at 10 µM (MCF-7): 22.6% | inhibition at 10 µM (T-47D): < 5%

Cc1ccc(-c2nn(-c3ccc(S(N)(=O)=O)cc3)cc2-c2nnc(N)s2)cc1 [Compound 10, 4-[4-(5-Amino-1,3,4-thiadiazol-2-yl)-3-(p-tolyl)-1H-pyrazol-1-yl] benzenesulfonamide]
inhibition at 10 µM (PC-3): 8.5% | inhibition at 10 µM (DU-145): < 5% | inhibition at 10 µM (ACHN): < 5% | inhibition at 10 µM (UO-31): 7.96% | inhibition at 10 µM (TK-10): 15.4% | inhibition at 10 µM (A498): 15.5% | inhibition at 10 µM (SN12C): < 5% | inhibition at 10 µM (RXF 393): 9.9% | inhibition at 10 µM (CAKI-1): 12.1% | inhibition at 10 µM (HOP-92): 30.8% | inhibition at 10 µM (MDA-MB-231/ATCC): < 5% | inhibition at 10 µM (HS 578T): 5.02% | inhibition at 10 µM (MDA-MB-468): 5.43% | inhibition at 10 µM (BT-549): 11.2% | inhibition at 10 µM (MCF-7): 15.8% | inhibition at 10 µM (T-47D): 13.2%

Cc1ccc(-c2nn(-c3ccc(S(N)(=O)=O)cc3)cc2-c2n[nH]c(=S)[nH]2)cc1 [Compound 11, 4-[4-(5-Mercapto-1H-1,2,4-triazol-3-yl)-3-(p-tolyl)-1H-pyrazol-1-yl] benzenesulfonamide]
inhibition at 10 µM (PC-3): < 5% | inhibition at 10 µM (DU-145): < 5% | inhibition at 10 µM (ACHN): < 5% | inhibition at 10 µM (UO-31): < 5% | inhibition at 10 µM (TK-10): < 5% | inhibition at 10 µM (A498): < 5% | inhibition at 10 µM (SN12C): 7.65% | inhibition at 10 µM (RXF 393): 10.1% | inhibition at 10 µM (CAKI-1): 11.4% | inhibition at 10 µM (HOP-92): < 5% | inhibition at 10 µM (MDA-MB-231/ATCC): < 5% | inhibition at 10 µM (HS 578T): < 5% | inhibition at 10 µM (MDA-MB-468): < 5% | inhibition at 10 µM (BT-549): < 5% | inhibition at 10 µM (MCF-7): 6.49% | inhibition at 10 µM (T-47D): 21.2%
